# Where “and” joins values, the source holds several entries; their conditions need not be identical. Equal entries are not always repeated. Entries after “also recorded” stand apart in the source; their conditions may differ. Where two headings read alike, the source gives them in different places.
# Tests used:
# [1] = biological target: recombinant human galectin-1 (Homo sapiens, UniProt P09382); test: SPR (BIAcore) equilibrium binding to immobilized galectin-1; parameters: key to Galectin-1 binding, KD: NB: non-binder; conditions: for binding to galectin-1 (in words): SPR assay
# recombinant human galectin-1, sequence (P09382 whole entry): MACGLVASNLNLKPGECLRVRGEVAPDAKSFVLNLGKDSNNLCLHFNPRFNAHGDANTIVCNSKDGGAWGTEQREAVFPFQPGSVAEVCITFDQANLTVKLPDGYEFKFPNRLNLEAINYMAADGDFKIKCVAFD
# Experimental: (§1) Galectin binding affinity measurements were performed in a surface plasmon resonance (SPR) assay using […] instrument (BIAcore, Inc, Uppsala, Sweden). PBS with 5 mM β-mercaptoethanol was used as running buffer for all experiments. Purified recombinant human galectin-1 and galectin-4 were immobilized at different surface densities on CM5 carboxymethyldextran chip (BIAcore) in the presence of 150 mM lactose, using standard amine coupling chemistry. Galectin immobilization was performed at 5 μl/min flow rate. To ensure the maximum possible immobilization of recombinant proteins, carboxylmethyldextran surface was activated with a 15 min pulse of a mixture of 0.05 M N-hydroxysuccinimide (NHS) with 0.2 M N-ethyl-N′-(dimethylaminopropyl) carbodiimide (EDC). Recombinant galectins, diluted to 30 μg/ml in 10 mM Na Acetate buffer (pH 4.8 for galectin-1 and pH 5.5 for galectin-4) were coupled to the surface during a 15-minute injection. Following galectin injection, remaining activated groups on the surface of the chip were deactivated with a 7 min pulse of 1 M ethanolamine hydrochloride, pH 8.5. Blank, unmodified CM5 surface was used as a negative control for the corrections for refractive index changes due to the presence of lactulosamines.
# (§2) Binding of lactulosamines was performed at 80 μl/min flow rate, with injection times of 15 sec. […] Instead, the equilibrium binding levels were examined and determined the equilibrium binding constant using steady state affinity fitting model (BIAevaluation software version 3.1).
# [2] = biological target: T1, recombinant human galectin-4 (Homo sapiens, UniProt P56470); test: SPR (BIAcore) equilibrium binding to immobilized galectin-4; parameters: key to Galectin-4 binding, KD: NB: non-binder; conditions: for binding to galectin-4 (in words): SPR assay
# T1 construct: cDNA encoding full-length human galectin-4 was amplified from an EST clone; made in house; host or cells: E. coli BL21 (DE3)pLysS
# T1 sequence (P56470 1-323): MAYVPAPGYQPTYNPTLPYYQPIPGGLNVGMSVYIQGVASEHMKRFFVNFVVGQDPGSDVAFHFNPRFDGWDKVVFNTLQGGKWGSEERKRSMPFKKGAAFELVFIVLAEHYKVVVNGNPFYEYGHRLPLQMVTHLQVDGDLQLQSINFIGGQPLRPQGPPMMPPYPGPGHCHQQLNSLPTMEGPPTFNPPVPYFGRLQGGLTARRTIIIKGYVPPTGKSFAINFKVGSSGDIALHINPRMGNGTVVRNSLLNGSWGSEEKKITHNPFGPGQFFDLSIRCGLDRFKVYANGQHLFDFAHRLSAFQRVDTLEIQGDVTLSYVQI
# Experimental: as §1, §2
# CD8+ CTL clone [3] = test: CD8+ CTL clone survival after TF peptide stimulation, with galectin-1 and inhibitors; type: cell-based; conditions: for prevention of cell death induced by galectin-1: 4 days, FIG. 10B; for restoring the ability of CTL's to proliferate: in presence of galectin-1, FIG. 10B
# Text: The ability of L2hmda to restore this activity is especially significant since TDG, a known galectin inhibitor, is toxic. However, L2hmda is not toxic. […] The CD8+ CTL clone was stimulated with TF peptide for 4 days and cell survival (% of starting number) measured by enumerating viability by trypan blue exclusion.
# [4] = biological target: galectin-1 binding to 90K/MAC-2BP (Homo sapiens, UniProt P09382); test: ELISA, inhibition of galectin-1 binding to immobilized 90K; conditions: for inhibition of galectin-1 binding to 90K (in words): ELISA, FIG. 9A; for inhibition of binding of galectin-1 to 90K: at 156 μM, galectin-1 2.5 μg/ml (0.17 μM)
# galectin-1 binding to 90K/MAC-2BP, sequence (P09382 2-135 limits assumed): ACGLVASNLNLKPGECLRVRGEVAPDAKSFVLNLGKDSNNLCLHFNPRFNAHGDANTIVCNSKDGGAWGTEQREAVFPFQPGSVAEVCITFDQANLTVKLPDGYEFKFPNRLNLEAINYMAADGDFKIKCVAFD
# Experimental: (§3) Human 90K/MAC-2BP (thereafter called 90K) was purified from transfected EBNA-293 cells (lurisci, I., et al., Clin. Cancer Res. (2000) 6:1389-1393). Laminin was obtained from Boehringer Mannheim GmbH (Germany). The ELISA for galectin binding has been previously described (Tinari, N., et al., Int. J. Cancer (2001) 91:167-172). Briefly, Nunc Maxisorb microtiter wells were coated with 0.5 μg/well of 90K or laminin. Recombinant galectin-1 (2.5 μg/ml or 0.17 μM) was diluted in PBS with 0.1% Tween-20 and added to wells coated with glycoproteins, and galectin-1 binding was detected with anti-galectin-1 rabbit antiserum. In binding-inhibition experiments, recombinant galectin-1 was diluted in PBS-0.1% Tween-20 containing indicated concentration of lactulosamines or lactose.
# N202.1A tumor cells = test: N202.1A tumor growth in Neu mice; type: in vivo; conditions: 100 μl of 100 μM daily combined with dendritic cell therapy, 25 days, FIG. 11, listed as L2hmda
# Experimental: Neu mice were inoculated on Day 0 with 10^6 N202.1A tumor cells. The animals were divided into four groups of four mice each. On Day 7, groups 2 and 4 were subjected to dendritic cell therapy which involved immunization with 10^6 dendritic cells pulsed with apoptotic N202.1A cells and intraperitoneal injections of recombinant IL-2 (10^4 1.U./injection) from Day 10 to […]. Groups 3 and 4 received injections of 100 μl of 100 μM L2hmda daily.
# [5] = biological target: galectin-1 binding to laminin (Homo sapiens, UniProt P09382); test: ELISA, inhibition of galectin-1 binding to immobilized laminin; conditions: for inhibition of galectin-1 binding to laminin (in words): ELISA, FIG. 9B; for inhibition of binding of galectin-1 to laminin: at 156 μM, galectin-1 2.5 μg/ml (0.17 μM)
# galectin-1 binding to laminin, sequence (P09382 2-135 limits assumed): as above
# Experimental: as §3
# CD8+ CTL clone [6] = test: Cytokine production by CD8+ CTL clone after TF peptide stimulation, with galectin-1 and inhibitor; type: cell-based
# Experimental: Treatment in vitro of CD4+ and CD8+T cells with recombinant soluble galectin-1 inhibits their survival and ability to secrete cytokine, such as interferon-γ and IL-2. […] In FIG. 10A, cells are stimulated by TF peptide and the levels of interferon-γ produced measured in nanogram/milliliter (ng/ml). As shown, galectin-1 inhibits interferon-γ secretion in a dose-dependent manner. […] Similar data were seen when another cytokine, IL-2, was measured (not shown).
# breast cancer cells = conditions: nude mouse model; cited from earlier work
# cancer cells = conditions: cited from earlier work
# [7] = Toxicity statement on galectin inhibitors
# [8] = SPR steady state affinity fit, Table I, read-out: Galectin-1 binding, KD
# [9] = SPR steady state affinity fit, Table I, read-out: Galectin-4 binding, KD
# [10] = SPR steady state affinity fit, Table I
# [11] = SPR steady-state analysis, read-out: KD value for galectin-1
# [12] = SPR, full-length galectin-4 with two binding domains, read-out: KD for galectin-4
compound,measurement,setting,value
CSCCC(NCC(=O)C(O)C(OC1OC(CO)C(O)C(O)C1O)C(O)CO)C(=O)O [Lactulose-L-methionine],Kd,[1]; [8],127 µM
same,Kd,[2]; [9],1270 µM
"OC[C@H]1O[C@H](O[C@H]2[C@H](O)[C@@H](O)[C@H](O)O[C@@H]2CO)[C@H](O)[C@@H](O)[C@@H]1O [Maltose, reference compound]",binding to galectin-1 (in words),[1],unable to bind
same,"Galectin-1 binding, KD",[1]; [10],NB
same,binding to galectin-4 (in words),[2],unable to bind
same,"Galectin-4 binding, KD",[2]; [10],NB
O=C(O)CCCNCC(=O)C(O)C(OC1OC(CO)C(O)C(O)C1O)C(O)CO [Lactulose-L-GABA],Kd,[1]; [8],106 µM
same,Kd,[2]; [9],1040 µM
CC(C)C(NCC(=O)C(O)C(OC1OC(CO)C(O)C(O)C1O)C(O)CO)C(=O)O [Lactulose-L-valine],Kd,[1]; [8],158 µM
same,Kd,[2]; [9],719 µM and 730 µM
"OCC1OC(OC2C(O)COC(O)(CNCCCCCCNCC3(O)OCC(O)C(OC4OC(CO)C(O)C(O)C4O)C3O)C2O)C(O)C(O)C1O (stereo not drawn) [Dilactulose-hexamethylenediamine, dilactulose-hexamethylenediamine]","half-life, weighted average of the two components of dissociation rate",[1],7 s
same,binding to galectin-1 (in words),[1],superior in binding
same,binding to galectin-1 (in words),[1]; listed as L2hmda,significantly stronger
same,Kd,[1]; [11],~1.5 µM
same,"half-life, fast component",[1]; corresponding to fast koff,3 s
same,"half-life, slow component",[1]; corresponding to slow koff,19 s
same,"koff, fast component","[1]; two-component dissociation model, fast component 40% of overall rate",0.16 to 0.2 s⁻¹
same,"koff, slow component","[1]; two-component dissociation model, slow component 60% of overall rate",0.036 s⁻¹
same,prevention of cell death induced by galectin-1,CD8+ CTL clone [3]; trypan blue exclusion,prevented the majority of cell death
same,restoring the ability of CTL's to proliferate,CD8+ CTL clone [3],able to restore
same,inhibition of galectin-1 binding to 90K (in words),[4],most potent inhibitor
same,inhibition of binding of galectin-1 to 90K,[4],about 80%
same,tumor volume,N202.1A tumor cells,superior to treatment with either alone; also recorded: very little tumor volume enhancement
same,binding to galectin-4 (in words),[2],superior in binding
same,Kd,[2]; [9],78 µM and 83 µM and 105 µM and 115 µM
same,Kd,[2]; [12],~80 µM
same,inhibition of galectin-1 binding to laminin (in words),[5],most potent inhibitor
same,inhibition of binding of galectin-1 to laminin,[5],about 70%
same,restoration of interferon secretion,"CD8+ CTL clone [6]; galectin-1 7 μM, L2hmda 200 μM, FIG. 10C",restores the interferon 7 secretion to normal
same,galectin-1 mediated suppression of IFN-γ production by the CTL,CD8+ CTL clone [6]; increasing concentrations (50-200 uM) of inhibitor,completely prevented
O=C(O)CNCC(=O)C(O)C(OC1OC(CO)C(O)C(O)C1O)C(O)CO (stereo not drawn) [Lactulose-glycine],Kd,[1]; [8],102 µM
same,inhibition of binding of galectin-1 to 90K,[4],about 20%
same,Kd,[2]; [9],790 µM
same,inhibition of binding of galectin-1 to laminin,[5],~10%
CCC(C)C(NCC(=O)C(O)C(OC1OC(CO)C(O)C(O)C1O)C(O)CO)C(=O)O [Lactulose-L-isoleucine],Kd,[1]; [8],129 µM
same,Kd,[2]; [9],550 µM
fructose-D-leucine,binding to galectin-1 (in words),[1],did not
same,binding to galectin-1 (in words),[1]; listed as fructose coupled to leucine,unable to bind
same,"Galectin-1 binding, KD",[1]; [10],NB
same,binding to galectin-4 (in words),[2],unable to bind
same,"Galectin-4 binding, KD",[2]; [10],NB
CC(NCC(=O)C(O)C(OC1OC(CO)C(O)C(O)C1O)C(O)CO)C(=O)O [Lactulose-L-alanine],Kd,[1]; [8],150 µM
same,Kd,[2]; [9],1490 µM and 1720 µM
CC(C)CC(NCC(=O)C(O)C(OC1OC(CO)C(O)C(O)C1O)C(O)CO)C(=O)O [Lactulose-D-leucine],Kd,[1]; [8],128 µM and 223 µM
same,Kd,[2]; [9],770 µM and 880 µM and 1090 µM
"OC[C@H]1O[C@@](CO)(O[C@H]2O[C@H](CO)[C@@H](O)[C@H](O)[C@H]2O)[C@@H](O)[C@@H]1O [Sucrose, reference compound]",binding to galectin-1 (in words),[1],unable to bind
same,"Galectin-1 binding, KD",[1]; [10],NB
same,binding to galectin-4 (in words),[2],unable to bind
same,"Galectin-4 binding, KD",[2]; [10],NB
CC(NCC(=O)C(O)C(OC1OC(CO)C(O)C(O)C1O)C(O)CO)C(=O)O [Lactulose-D-alanine],Kd,[1]; [8],133 µM
same,Kd,[2]; [9],1010 µM
O=C(O)C(Cc1c[nH]cn1)NCC(=O)C(O)C(OC1OC(CO)C(O)C(O)C1O)C(O)CO [Lactulose-L-histidine],Kd,[1]; [8],191 µM
same,Kd,[2]; [9],2280 µM
O=C(O)C(Cc1ccccc1)NCC(=O)C(O)C(OC1OC(CO)C(O)C(O)C1O)C(O)CO [Lactulose-L-phenylalanine],Kd,[1]; [8],200 µM
same,Kd,[2]; [9],1090 µM and 1260 µM
"galectin-1: recombinant soluble galectin-1, immunosuppressive lectin added to T cells",death of T cells,"CD8+ CTL clone [3]; over the 4 day period, trypan blue exclusion",90%
same,IFN-γ production (ELISA),"CD8+ CTL clone [6]; supernatants 48 hr after stimulation, galectin-1 0-7 uM",suppressed in a dose dependent fashion
"CC(C)CC(NCC(=O)C(O)C(OC1OC(CO)C(O)C(O)C1O)C(O)CO)C(=O)O [Lactulose-L-leucine, lactulose-L-leucine]",binding to galectin-1 (in words),[1],could bind
same,Kd,[1]; [8],113 µM and 200 µM
same,Kd,[1]; [11],~110 µM
same,clonogenic growth and metastasis of breast cancer cells,breast cancer cells,block
same,inhibition of binding of galectin-1 to 90K,[4],about 50%
same,Kd,[2]; [9],505 µM and 800 µM and 1010 µM
same,Kd,[2]; [12],~800 µM
same,inhibition of binding of galectin-1 to laminin,[5],~40%
same,adhesion of cancer cells to endothelium,cancer cells,blocks
"OC[C@H]1O[C@@H](S[C@@H]2O[C@H](CO)[C@H](O)[C@H](O)[C@H]2O)[C@H](O)[C@@H](O)[C@H]1O [TDG, thiodigalactolate, reference compound]",toxicity,[7],toxic
same,prevention of cell death induced by galectin-1,CD8+ CTL clone [3]; trypan blue exclusion,prevented the majority of cell death
same,restoring the ability of CTL's to proliferate,CD8+ CTL clone [3],able to restore
CC(O)C(NCC(=O)C(O)C(OC1OC(CO)C(O)C(O)C1O)C(O)CO)C(=O)O [Lactulose-L-threonine],Kd,[1]; [8],376 µM
same,Kd,[2]; [9],3830 µM
O=C(CN1CCCC1C(=O)O)C(O)C(OC1OC(CO)C(O)C(O)C1O)C(O)CO [Lactulose-L-proline],Kd,[1]; [8],70 µM
same,inhibition of binding of galectin-1 to 90K,[4],about 50%
same,Kd,[2]; [9],530 µM
same,inhibition of binding of galectin-1 to laminin,[5],~40%
"OC[C@H]1O[C@@H](O[C@H]2[C@H](O)[C@@H](O)[C@H](O)O[C@@H]2CO)[C@H](O)[C@@H](O)[C@H]1O [β-lactose, reference compound]",binding to galectin-1 (in words),[1],able to bind
same,inhibition of galectin-1 binding to 90K (in words),[4],inhibited
same,inhibition of binding of galectin-1 to 90K,[4],about 20%
same,binding to galectin-4 (in words),[2],able to bind
same,inhibition of galectin-1 binding to laminin (in words),[5],inhibited
same,inhibition of binding of galectin-1 to laminin,[5],~10%
